These results are taken from US8835380B2, “Therapeutic conjugates” (University College Cardiff Consultants Limited, priority 2010, dated 2014).

One data set deals with LPS from E. coli. Briefly: LAL assay (endotoxin neutralisation). The class given is biochemical. The settings on record: 4 μg/mL. The procedure:
A colorimetric assay technique was used in which the clotting reaction of Limulus amoebocyte lysate (LAL) in the presence of LPS was measured spectrophotometrically at 540 nm.
LPS was dissolved in pyrogen free water (0-50 ng/mL) containing colistin, CMS, dextrin-colistin or unmasked dextrin-colistin (4 μg/mL, 100 μL) in pyrogen-free vials. Control samples contained only LPS dissolved in pyrogen-free water. Solutions were mixed well and incubated at 37° C. for 3 h. Reconstituted LAL (100 μL) was then added and the solution mixed well before incubation at 37° C. for 45 min. Next, reconstituted substrate solution (100 μL) was added to each vial, mixed well and incubated for a further 6 min. Finally, the reaction was terminated by addition of reconstituted stop solution and colour stabilisers. Samples (100 μL) were pipetted into the wells of a 96-well microtitre plate (6 wells per sample) and absorption was read spectrophotometrically at 540 nm. The concentration of LPS producing 50% maximal absorption was taken as the ED50.
To study the effect of amylase on the activity of dextrin-colistin conjugates, dextrin-colistin conjugates (0.5 mg/mL) were first incubated with amylase (100 IU/L) for 6 and 24 h at 37° C. in PBS (pH 8.2). The endotoxin binding activity assays were then followed as described above.

The target in the next data set is T1, human amylase (Homo sapiens, UniProt P0DUB6).
T1 construct: α-amylase from human saliva; purchased Sigma-Aldrich (Poole, UK); host or cells: human saliva (natural source)
Nature of the data set: Release of colistin from dextrin-colistin conjugates by amylase (FPLC). The class given is in vitro ADME. The settings on record: amylase 100 IU/L in PBS, 37° C., CMS: hydrolysis in PBS. The procedure:
To compare the rate of amylase degradation of dextrin, succinoylated dextrin and dextrin-colistin conjugates, solutions (3 mg/mL in PBS, pH 7.4) of each sample was prepared containing amylase (100 IU/L in PBS) and incubated at 37° C. for up to 48 h. At various time points, samples (300 μL) were taken, immediately snap frozen in liquid nitrogen to stop the reaction and then stored at −20° C. until analysis by GPC and FPLC (conjugates only). Prior to analysis, samples were placed in a water bath (100° C.) for 5 min to denature the enzyme activity of the amylase and stop polymer degradation. The supernatant was then analysed by GPC to determine the change in molecular weight over time and by FPLC to determine the change in free colistin over time.

Data set [1] has as its system Pseudomonas aeruginosa mucoid strain. Nature of the data set: MIC broth microdilution (first mucoid strain, Table 3 r46). The class given is cell-based. Particulars: amylase (100 IU/L) pre-incubation time 0. Here is the method: (§1) Antimicrobial activity was measured using broth microdilution in a minimum inhibitory concentration (MIC) assay according to the Clinical and Laboratory Standards Institute (formerly NCCLS; 2003, Methods for Dilution Antimicrobial Susceptibility Tests for Bacteria That Grow Aerobically, Approved Standard—Sixth Edition. M7A6. Clinical and Laboratory Standards Institute. Wayne, Pa.). Test organisms were suspended in Mueller Hinton cation adjusted broth (100 μL, 1-5×10^4 CFU/mL) and incubated in 96-well microtitre plates in serial two-fold dilutions of the test compounds.
(§2) The antimicrobial activity of dextrin-colistin was also determined following incubation of the conjugate with amylase. Dextrin-colistin conjugates (3 mg/mL colistin eq.) were first incubated with amylase (100 IU/L for up to 48 h at 37° C. in PBS buffer (pH 8.2)).
A general note: Broth dilution looks for growth in wells or tubes with falling amounts of substance.

For data set [2] the test system is unchanged. Nature of the data set: MIC broth microdilution (second mucoid strain, Table 3 r49). The class given is cell-based. Particulars: amylase (100 IU/L) pre-incubation time 0. The procedure:
as §1, §2

The next data set has as its system HK2 kidney cells. Briefly: MTT assay, cell viability. The class given is cell-based, human. The settings on record: 72 h incubation. Here is the method: The MTT assay was used to assess cell viability (72 h incubation) in a human kidney (HK2) cell line. Cells were seeded into sterile 96-well microtitre plates (1×10^5 cells/mL) in 0.1 mL/well of media (DMEM) containing FCS (10% v/v). They were allowed to adhere for 24 h. The medium was then removed and test compounds (0.2 μm filter-sterilized) were added to the cells. To study the effect of colistin, CMS, dextrin-colistin conjugate and succinoylated dextrin (8,000 g/mol, 1.1 mol % succinoylation) on cell viability, complete media (+FCS) was supplemented with a range of concentrations of each. To study the effect of ‘unmasked’ dextrin-colistin on cell viability, complete media (+FCS) was supplemented with a range of concentrations of conjugate and amylase (100 IU/L). After a further 67 h incubation, MTT (20 μL of a 5 mg/mL solution in PBS) was added to each well and the cells were incubated for a further 5 h. The medium was then removed and the precipitated formazan crystals solubilized by addition of optical grade DMSO (100 μL) over 30 min. Absorbance was measured at 540 nm using a microtitre plate reader. Cell viability was expressed as a percentage of the viability of untreated control cells. The IC50 values were expressed as mean±SEM (n=18).
A general note: Tetrazolium dyes change colour on reduction, which living cells bring about.

The test system of data set [3] is Klebsiella pneumoniae 5725. Nature of the data set: MIC broth microdilution. Particulars: amylase (100 IU/L) pre-incubation time 0. The class given is cell-based. The procedure:
as §1, §2

The subject of data set [4] is Klebsiella pneumoniae KP05 506. Briefly: MIC broth microdilution. Particulars: amylase (100 IU/L) pre-incubation time 0. The class given is cell-based. Here is the method: as §1, §2
Data set [5] deals with Acinetobacter baumannii MDR ACB. Nature of the data set: MIC broth microdilution. Particulars: amylase (100 IU/L) pre-incubation time 0. The class given is cell-based. The procedure:
as §1, §2

The subject of the next data set is Escherichia coli AIM-1. Briefly: MIC broth microdilution. The class given is cell-based. The settings on record: amylase (100 IU/L) pre-incubation time 0. The procedure: as §1, §2
For data set [6], the system named is Acinetobacter baumannii 7789. Nature of the data set: MIC broth microdilution. The class given is cell-based. The settings on record: amylase (100 IU/L) pre-incubation time 0. The procedure: as §1, §2
Data set [7] concerns Pseudomonas aeruginosa R22 PSA. Nature of the data set: MIC broth microdilution. Particulars: amylase (100 IU/L) pre-incubation time 0. The class given is cell-based. Here is the method: as §1, §2
The test system of data set [8] is Acinetobacter haemolyticus 1554. Nature of the data set: MIC broth microdilution. The class given is cell-based. Particulars: amylase (100 IU/L) pre-incubation time 0. The procedure: as §1, §2
The subject of the next data set is Escherichia coli 7273. Nature of the data set: MIC broth microdilution. The class given is cell-based. Particulars: amylase (100 IU/L) pre-incubation time 0. Here is the method:
as §1, §2

Data set [9] relates to Pseudomonas aeruginosa MDR 301 PSA. Nature of the data set: MIC broth microdilution. The class given is cell-based. Particulars: amylase (100 IU/L) pre-incubation time 0. Here is the method: as §1, §2
For data set [10], the system named is Providencia stuartii IR57. Briefly: MIC broth microdilution. The settings on record: amylase (100 IU/L) pre-incubation time 0. The class given is cell-based. The procedure:
as §1, §2

In data set [11] the test system is Acinetobacter lwoffi 6056. Briefly: MIC broth microdilution. The class given is cell-based. The settings on record: amylase (100 IU/L) pre-incubation time 0. Here is the method:
as §1, §2

In a further data set the test system is Acinetobacter lwoffi. Briefly: MIC broth microdilution. Particulars: amylase (100 IU/L) pre-incubation time 0. The class given is cell-based. The procedure: as §1, §2
A further data set concerns Acinetobacter baumannii. Briefly: MIC broth microdilution. The class given is cell-based. Particulars: amylase (100 IU/L) pre-incubation time 0. The procedure: as §1, §2
For data set [12], the system named is Klebsiella pneumoniae IR25. Briefly: MIC broth microdilution. The class given is cell-based. Particulars: amylase (100 IU/L) pre-incubation time 0. The procedure:
as §1, §2

In another data set the test system is Escherichia coli 5702. Briefly: MIC broth microdilution. Particulars: amylase (100 IU/L) pre-incubation time 0. The class given is cell-based. The procedure: as §1, §2
In data set [13] the test system is Pseudomonas aeruginosa PA01. Nature of the data set: MIC broth microdilution. The class given is cell-based. The settings on record: amylase (100 IU/L) pre-incubation time 0. The procedure:
as §1, §2

The subject of a further data set is Klebsiella pneumoniae K3. Briefly: MIC broth microdilution. The class given is cell-based. The settings on record: amylase (100 IU/L) pre-incubation time 0. Here is the method:
as §1, §2

T1 sequence (P0DUB6 16-511): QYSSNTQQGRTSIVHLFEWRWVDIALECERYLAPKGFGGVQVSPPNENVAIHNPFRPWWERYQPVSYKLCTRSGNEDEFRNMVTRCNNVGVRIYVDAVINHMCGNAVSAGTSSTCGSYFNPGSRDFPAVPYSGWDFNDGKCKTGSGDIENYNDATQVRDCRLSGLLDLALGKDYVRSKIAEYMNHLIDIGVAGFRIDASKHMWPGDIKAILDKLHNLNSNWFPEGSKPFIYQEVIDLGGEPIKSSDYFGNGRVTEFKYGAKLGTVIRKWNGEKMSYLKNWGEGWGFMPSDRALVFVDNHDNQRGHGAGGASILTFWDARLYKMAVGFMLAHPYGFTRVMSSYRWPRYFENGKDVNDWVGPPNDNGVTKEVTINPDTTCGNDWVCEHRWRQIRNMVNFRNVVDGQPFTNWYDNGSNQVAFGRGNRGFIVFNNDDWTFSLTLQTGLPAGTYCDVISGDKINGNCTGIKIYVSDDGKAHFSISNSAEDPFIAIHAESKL

For colistin, in the data set with LPS from E. coli, the “inhibition of cleavage of chromogenic substrate by E. coli LPS” value is on record as “able to inhibit”. Further, in the data set on LPS from E. coli (preincubated 3 h at 37° C.), the “LPS required to trigger Limulus amoebocyte lysate gelation compared to LPS in water” value is on record as 20 fold. The “% colistin release after 24 h” value at human amylase is recorded as 100%. The MIC in data set [1] was found to be 0.01; in data set [2], 0.008; in data set [3], 0.03; in data set [4], 0.125; in data set [5], 0.125; against Escherichia coli AIM-1 it was 0.01. Further, the MIC in [6] was 0.03; in data set [7] it was 0.03; in data set [8] it was 4; in the data set with Escherichia coli 7273 it was less than 0.5; in data set [9] it was 0.125; in [10], 0.01. In addition, the MIC in data set [11] turned out to be 0.03; against Acinetobacter lwoffi, 0.25; in the data set on Acinetobacter baumannii, 0.03; in [12] it was 0.03; against Escherichia coli 5702 it was 0.03; in data set [13] it was 0.06. The same substance gave an MIC with Klebsiella pneumoniae K3 of 0.06. In addition, the “IC50 (cell viability)” value with HK2 kidney cells came to 20 µg/mL.

With colistin methanesulfonate [CMS], on human amylase, the “% colistin release after 24 h” value is recorded as 23.6%. The MIC in data set [1] was 1; in data set [2], 0.25; in [3], 1; in [4], 2; in [5], 4; in the data set on Escherichia coli AIM-1 it was 0.25. For the same substance, the MIC in data set [6] is reported as 2; in data set [7], 0.5; in data set [8], 8; against Escherichia coli 7273, 2; in [9], 1; in [10], 1. In addition, the MIC in data set [11] turned out to be 2; against Acinetobacter lwoffi it was 4; in the data set with Acinetobacter baumannii, 4; in data set [12], 2; in the data set with Escherichia coli 5702 it was 1; in data set [13] it was 1. The substance also showed an MIC with Klebsiella pneumoniae K3 of 2. In addition, the “IC50 (cell viability)” value in the data set on HK2 kidney cells came to 25 µg/mL.
